The values that follow come from US8835634B2, “Quinoxalinone derivatives as insulin secretion stimulators, methods for obtaining them and use thereof for the treatment of diabetes” (Merck Patent GmbH, priority 2008, dated 2014).

The structures appear in SMILES notation.

The melting point is the temperature, or range, at which the solid turns liquid.

The test system of the first data set is INS-1 cells. Briefly: Insulin secretion assay in INS-1 cells (glucose at 4.2 mM). The format is cell-based, rat. Particulars: glucose 4.2 mM, 1 h incubation, 10 μM compound, control = glucose 4.2 mM. Here is the method:
Culture of Pancreatic INS-1 Cells
INS-1 cells were cultured in complete medium, RPMI1640 containing 1 mM sodium pyruvate, 50 μM 2-mercaptoethanol, 2 mM glutamine, 10 mM HEPES, 100 IU/mL penicillin, and 100 μg/mL streptomycin (CM), supplemented with 10 mM glucose, and 10% (vol/vol) heat-inactivated fetal calf serum (FCS), as described by Asfari et al. (Endocrinology 130: 167-178, 1992).
INS-1 cells were plated and cultured in 48-well plates. After 2 days of culture, the medium was removed and cells were cultured for 24 h with a medium change to 5 mM glucose, 1% FCS. The cells were then washed with Krebs-Ringer Bicarbonate HEPES buffer (KRBH; 135 mM NaCl; 3.6 mM KCl; 5 mM NaHCO3; 0.5 mM NaH2PO4; 0.5 mM MgCl2; 1.5 mM CaCl2 and 10 mM HEPES; pH 7.4) 0.1% BSA containing 2.8 mM glucose and preincubated for 30 min at 37° C. in the same buffer. The cells were then washed twice and incubated for 1 h in KRBH 0.1% BSA containing 4.2 mM glucose and different concentrations of the tested molecule. Insulin concentration in the collected supernatants was measured with ELISA using rat insulin antibody (Insulin Rat Elit PLUS, cat. ref 10-1145-01).
Insulin secretion results are expressed in % of control (glucose 4.2 mM).
Insulin Secretion in INS-1 Cells (Glucose at 4.2 mM)
Consider `CCn1c(=O)c(-c2ccc(F)cc2C)nc2ccccc21` [Example 6-5, 1-ethyl-3-(4-fluoro-2-methylphenyl)quinoxalin-2(1H)-one], for which the “Insulin secretion, % of ctrl at 10 μM of cpd” value is 287 % of ctrl.

For `CCn1c(=O)c(-c2ccc(Cl)cc2)nc2ccccc21` [Example 6, 3(4-chlorophenyl)-1-ethyl-quinoxalin-2(1H)-one], the “Insulin secretion, % of ctrl at 10 μM of cpd” value is 325 % of ctrl.

For `O=c1c(-c2ccccc2)nc2ccccc2n1C1CC1` [Example 3-11, 1-cyclopropyl-3-phenylquinoxalin-2(1H)-one], the “Insulin secretion, % of ctrl at 10 μM of cpd” value is given as 371 % of ctrl.

Regarding `CCn1c(=O)c(-c2ccc(F)cc2)nc2ccccc21` [Example 6-3, 1-ethyl-3-(4-fluorophenyl)quinoxalin-2(1H)-one], the “Insulin secretion, % of ctrl at 10 μM of cpd” value is listed as 316 % of ctrl.

Regarding `O=c1c(-c2ccc(Cl)cc2)nc2ccccc2n1CC(F)F` [Example 3-2, 3-(4-chlorophenyl)-1-(2,2-difluoroethyl)quinoxalin-2(1H)-one], the “Insulin secretion, % of ctrl at 10 μM of cpd” value is reported as 540 % of ctrl.

Regarding `CCn1c(=O)c(-c2ccc(C(F)(F)F)cc2)nc2ccccc21` [Example 6-7, 1-ethyl-3-(4-trifluoromethylphenyl)quinoxalin-2(1H)-one], the “Insulin secretion, % of ctrl at 10 μM of cpd” value is recorded as 221 % of ctrl.

`CCn1c(=O)c(-c2ccc(C)cc2)nc2ccccc21` [Example 6-4, 1-ethyl-3-(4-methylphenyl)quinoxalin-2(1H)-one]: the “Insulin secretion, % of ctrl at 10 μM of cpd” value is reported as 305 % of ctrl.

The same data set, now with this note: glucose 4.2 mM, 1 h incubation, 50 μM compound, control = glucose 4.2 mM.
As for `CCn1c(=O)c(-c2ccc(F)cc2C)nc2ccccc21` [Example 6-5, 1-ethyl-3-(4-fluoro-2-methylphenyl)quinoxalin-2(1H)-one], the “Insulin secretion, % of ctrl at 50 μM of cpd” value is on record as 325 % of ctrl.

On to `CCn1c(=O)c(-c2ccc(Cl)cc2)nc2ccccc21` [Example 6, 3(4-chlorophenyl)-1-ethyl-quinoxalin-2(1H)-one], for which the “Insulin secretion, % of ctrl at 50 μM of cpd” value was 495 % of ctrl.

As for `O=c1c(-c2ccccc2)nc2ccccc2n1C1CC1` [Example 3-11, 1-cyclopropyl-3-phenylquinoxalin-2(1H)-one], the “Insulin secretion, % of ctrl at 50 μM of cpd” value is listed as 468 % of ctrl.

As to `CCn1c(=O)c(-c2ccc(F)cc2)nc2ccccc21` [Example 6-3, 1-ethyl-3-(4-fluorophenyl)quinoxalin-2(1H)-one], the “Insulin secretion, % of ctrl at 50 μM of cpd” value is reported as 423 % of ctrl.

As for `O=c1c(-c2ccc(Cl)cc2)nc2ccccc2n1CC(F)F` [Example 3-2, 3-(4-chlorophenyl)-1-(2,2-difluoroethyl)quinoxalin-2(1H)-one], the “Insulin secretion, % of ctrl at 50 μM of cpd” value is 666 % of ctrl.

Take `CCn1c(=O)c(-c2ccc(C(F)(F)F)cc2)nc2ccccc21` [Example 6-7, 1-ethyl-3-(4-trifluoromethylphenyl)quinoxalin-2(1H)-one]: the “Insulin secretion, % of ctrl at 50 μM of cpd” value is on record as 466 % of ctrl.

Take `CCn1c(=O)c(-c2ccc(C)cc2)nc2ccccc21` [Example 6-4, 1-ethyl-3-(4-methylphenyl)quinoxalin-2(1H)-one]: the “Insulin secretion, % of ctrl at 50 μM of cpd” value is 391 % of ctrl.

Tested on in a further data set: not given
Experiment: not given
Details: not given
As for `O=c1c(-c2ccc(F)cc2)nc2ccccc2n1C1CC1` [Example 3-14, 1-cyclopropyl-3-(4-fluorophenyl)quinoxalin-2(1H)-one], the melting point lay within 179 to 182 °C.

With `CCn1c(=O)c(-c2ccc(F)cc2)nc2cc(F)c(F)cc21` [Example 3-9, 1-ethyl-6,7-difluoro-3-(4-fluorophenyl)quinoxalin-2(1H)-one], the melting point lay in the range of 116 to 118 °C.

As to `CCn1c(=O)c(-c2ccc(Cl)cc2)nc2cc(F)c(F)cc21` [Example 3-10, 1-ethyl-6,7-difluoro-3-(4-chlorophenyl)quinoxalin-2(1H)-one], the melting point was 135 to 137 °C.

In turn, `O=c1c(-c2ccc(Cl)cc2)nc2ccccc2n1C1CC1` [Example 3-3, 3-(4-chlorophenyl)-1-cyclopropyl-quinoxalin-2(1H)-one] came in with a melting point of 102 to 105 °C.

The molecule `CCCc1nc2ccccc2n(C2CC2)c1=O` [Example 3-32, 1-cyclopropyl-3-propylquinoxalin-2(1H)-one] yielded a melting point of 72 to 75 °C.

Molecule `CCn1c(=O)c(-c2ccc(Cl)cc2)nc2ccccc21` [Example 6, 3(4-chlorophenyl)-1-ethyl-quinoxalin-2(1H)-one] displayed a melting point of 138 to 140 °C.

On to `CCc1nc2cc(F)c(F)cc2n(CC)c1=O` [Example 3-24, 1,3-diethyl-6,7-difluoro-quinoxalin-2(1H)-one], for which the melting point was 117 to 119 °C.

With `O=c1c(-c2ccccc2)nc2ccccc2n1C1CC1` [Example 3-11, 1-cyclopropyl-3-phenylquinoxalin-2(1H)-one], the melting point lay within 102 to 105 °C.

For `O=c1c(-c2ccccc2)nc2ccccc2n1CC(F)F` [Example 3, 1-(2,2-difluoroethyl)-3-phenyl-quinoxalin-2(1H)-one], the melting point lay in the range of 85 to 88 °C.

The molecule `CCn1c(=O)c(-c2ccc(F)cc2)nc2ccccc21` [Example 6-3, 1-ethyl-3-(4-fluorophenyl)quinoxalin-2(1H)-one] gave a melting point of 110 to 115 °C.

`O=c1c(-c2ccc(Cl)cc2)nc2ccccc2n1CC(F)F` [Example 3-2, 3-(4-chlorophenyl)-1-(2,2-difluoroethyl)quinoxalin-2(1H)-one]: the melting point fell in the range of 133 to 136 °C.

As for `CCCCn1c(=O)c(-c2ccccc2)nc2ccccc21` [Example 3-16, 1-butyl-3-phenyl-quinoxalin-2(1H)-one], the melting point is 40 to 43 °C.

Molecule `O=c1c(-c2ccc(F)cc2)nc2ccccc2n1CC(F)F` [Example 3-34, 1-(2,2-difluoroethyl)-3-(4-fluorophenyl)quinoxalin-2(1H)-one] came in with a melting point of 151 to 154 °C.

Consider `CCc1nc2ccccc2n(C2CC2)c1=O` [Example 3-33, 1-cyclopropyl-3-ethylquinoxalin-2(1H)-one], for which the melting point was 77 to 80 °C.

`CCCCn1c(=O)c(CC)nc2ccccc21` [Example 3-29, 1-butyl-3-ethylquinoxalin-2(1H)-one]: the melting point was in the range of 48 to 51 °C.

A further data set deals with diabetic N0STZ rat islets. Briefly: Insulin secretion in diabetic N0STZ rat islets. Format: cell-based. Particulars: glucose 2.8 mM, compound 10−4 M, 90 min, Means±SEM. Here is the method: Insulin Secretion in Diabetic N0STZ Rat Islets. Materials and Methods. Islets Isolation and Treatments.
14±3 weeks non-fasted N0STZ (PORTHA et al., 1974) male rats (Charles Rivers-Domaine des Oncins, I'Arbresle, France) were anesthetised with sodium pentobarbital (Nembutal®: 45 mg/kg in 5 ml/kg administered intra peritoneally) and body temperature was maintained with a heat lamp.
Rat pancreatic islets of Langerhans were isolated from the pancreas of 8 rats by collagenase P (Boehringer, Meylan, France) digestion. Islets were purified by sedimentation in Hanks balanced salt solution [NaCl (137 mM); KCl (5.36 mM); MgSO4, 7 H2O (0.81 mM); Na2HPO4, 12 H2O (0.34 mM); KH2PO4 (0.44 mM); CaCl2, 2 H2O (1.26 mM); NaHCO3 (4.17 mM)] followed by Ficoll gradient separation. Islets were then hand-picked under stereoscopic microscope and batches of 3 islets were incubated for 90 minutes at 37° C. with continuous shaking under a humidified condition (95% O2, 5% CO2) in 1 ml of Krebs/Hepes pH 7 solution [NaCl (115 mM), NaHCO3 (24 mM), KCl (5 mM), MgCl2 (1 mM), CaCl2, 2 H2O (1 mM), 0.2% of Bovine serum albumin (Fraction V, fatty acid free, Boehringer, Mannheim), 10 mM Hepes] containing the required glucose or compound concentration. Compounds were dissolved in DMSO at 2.10-2M stock solutions. They were then diluted at the required concentration in Krebs/Hepes buffer containing the required glucose concentration.
At the end of incubation, media was collected and insulin levels were measured using ELISA (EUROBIO, Courtaboeuf, France).
Islets were hand-picked and incubated in the presence of increasing concentrations of compounds in the presence of glucose at 2.8 or 8 mM. At the end of incubation, media was collected and insulin levels were measured using ELISA method. Results are expressed as % of glucose control (2.8 or 8 mM) and represent Means±SEM.
Turning to `CCn1c(=O)c(-c2ccc(Cl)cc2)nc2ccccc21` [Example 6, 3(4-chlorophenyl)-1-ethyl-quinoxalin-2(1H)-one], the “Insulin secretion, % of glucose control” value is 94 ± 17 % of glucose control.

As to `CCn1c(=O)c(-c2ccc(F)cc2)nc2ccccc21` [Example 6-3, 1-ethyl-3-(4-fluorophenyl)quinoxalin-2(1H)-one], the “Insulin secretion, % of glucose control” value is given as 114 ± 17 % of glucose control.

Staying with this data set, now noted: glucose 8 mM, compound 10−4 M, 90 min, Means±SEM.
`CCn1c(=O)c(-c2ccc(Cl)cc2)nc2ccccc21` [Example 6, 3(4-chlorophenyl)-1-ethyl-quinoxalin-2(1H)-one]: the “Insulin secretion, % of glucose control” value is on record as 413 ± 7 % of glucose control.

As to `CCn1c(=O)c(-c2ccc(F)cc2)nc2ccccc21` [Example 6-3, 1-ethyl-3-(4-fluorophenyl)quinoxalin-2(1H)-one], the “Insulin secretion, % of glucose control” value is reported as 440 ± 8 % of glucose control.

Still in this data set, the particulars now being: glucose 8 mM, compound 10−5 M, 90 min, Means±SEM.
In the case of `CCn1c(=O)c(-c2ccc(Cl)cc2)nc2ccccc21` [Example 6, 3(4-chlorophenyl)-1-ethyl-quinoxalin-2(1H)-one], the “Insulin secretion, % of glucose control” value is 226 ± 12 % of glucose control.

On to `CCn1c(=O)c(-c2ccc(F)cc2)nc2ccccc21` [Example 6-3, 1-ethyl-3-(4-fluorophenyl)quinoxalin-2(1H)-one], for which the “Insulin secretion, % of glucose control” value is listed as 168 ± 9 % of glucose control.

The data set is the same for the next values; noted with them: glucose 8 mM, compound 10−6 M, 90 min, Means±SEM.
Take `CCn1c(=O)c(-c2ccc(Cl)cc2)nc2ccccc21` [Example 6, 3(4-chlorophenyl)-1-ethyl-quinoxalin-2(1H)-one]: the “Insulin secretion, % of glucose control” value is 124 ± 8 % of glucose control.

On to `CCn1c(=O)c(-c2ccc(F)cc2)nc2ccccc21` [Example 6-3, 1-ethyl-3-(4-fluorophenyl)quinoxalin-2(1H)-one], for which the “Insulin secretion, % of glucose control” value is 135 ± 11 % of glucose control.

The same data set, now with this note: glucose 8 mM, compound 10−7 M, 90 min, Means±SEM.
In the case of `CCn1c(=O)c(-c2ccc(Cl)cc2)nc2ccccc21` [Example 6, 3(4-chlorophenyl)-1-ethyl-quinoxalin-2(1H)-one], the “Insulin secretion, % of glucose control” value is listed as 126 ± 9 % of glucose control.

In the case of `CCn1c(=O)c(-c2ccc(F)cc2)nc2ccccc21` [Example 6-3, 1-ethyl-3-(4-fluorophenyl)quinoxalin-2(1H)-one], the “Insulin secretion, % of glucose control” value is given as 133 ± 8 % of glucose control.
